Each structure is given as a SMILES string. “Also recorded” adds a separate entry of the source.

For the first assay, the target named is protein kinase. Briefly: HTS ATP-utilizing enzyme assay, off-chip mobility-shift format (Caliper HTS 250). The assay is classed as biochemical, human. As to conditions: kinase(s) for which the compound exhibits protein kinase inhibitory activity; test compound 10 μM; active = greater than three-sigma from the mean activity of inactive compounds. In outline: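 Kinase reactions ran 2.5 h at 20 to 22 °C with test compound at 10 μM, in a HEPES pH 7.5 master buffer containing Triton X-100 and BSA. Peptide substrate and phosphorylated product separated by mobility shift; inhibition normalized to DMSO (0%) and EDTA (100%) controls, with three-sigma thresholds for hits.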
With `Cn1c(SCC(=O)c2ccc(O)c(O)c2)nnc1-c1ccccc1`, the Kinase result is “MSK2 and FYN and HCK”. On to `O=C(O)CSc1nnc(COc2ccc(Cl)cc2)[nH]1` [2-(5-((4-chlorophenoxy)methyl)-4H-1,2,4-triazol-3-ylthio)acetic acid], for which the Kinase result was “GSK3-B β; also recorded: GSK3-α”. Same read-out and setting: the result for `CCn1c(SCC(=O)Nc2nccs2)nnc1-c1ccc(S(=O)(=O)N2CCCC2)cc1` reads “GSK3-β; also recorded: GSK3-α”; that for `O=C(O)c1ccc(-n2c(S)nnc2-c2cc(C3CC3)n[nH]2)cc1`, “GSK3-α”; that for `Cc1cccc(C)c1NCc1nnc(SCC(=O)Nc2ccccc2-c2ccccc2)n1C`, “LCK”. Same read-out and setting: under `COc1ccc(-n2c(CNc3ccc(C)cc3)nnc2SCC(=O)O)cc1` stands “PDGFRR-α”; under `CC(=O)c1cccc(NC(=O)CSc2nnc(-c3ccc(O)cc3)n2C)c1`, “GSK3-β; also recorded: GSK3-α; also recorded: CHEK2”; under `O=C(O)CSc1nnc(-c2cccnc2)n1Cc1ccco1` [2-(4-(furan-2-ylmethyl)-5-(pyridin-3-yl)-4H-1,2,4-triazol-3-ylthio)acetic acid], “DAPK1; also recorded: GSK3-β; also recorded: AURORA-A”.

As to `COCCn1c(S)nnc1COc1ccc(Cl)cc1` [5-((4-chlorophenoxy)methyl)-4-(2-methoxyethyl)-4H-1,2,4-triazole-3-thiol], the Kinase result is “GSK3-α”. Still for that read-out and setting: under `N#CCSc1nnc(-c2cccnc2)n1Cc1ccccc1` [2-(4-benzyl-5-(pyridin-3-yl)-4H-1,2,4-triazol-3-ylthio)acetonitrile] stands “AURORA-A”. On to `COCCn1c(S)nnc1-c1cc2ccccc2cc1O` [3-(5-mercapto-4-(2-methoxyethyl)-4H-1,2,4-triazol-3-yl)naphthalen-2-ol], for which the Kinase result is given as “AURORA-A”. The same measure, in the same setting: the result for `O=C(CSc1nnc(CNc2ccc(F)cc2)n1Cc1ccccc1)Nc1cccc(O)c1` reads “CHEK2”; that for `CCn1c(CNc2cccc(C(F)(F)F)c2)nnc1SCC(=O)Oc1ccc(C)cc1`, “CDK2-cyclinA and CDK1 and CHEK2”. Still for that read-out and setting: under `COc1ccc(-c2nnc(S)n2Cc2ccco2)cc1OC` [5-(3,4-dimethoxyphenyl)-4-(furan-2-ylmethyl)-4H-1,2,4-triazole-3-thiol] stands “MSK2”; under `CCn1c(CNc2ccc(Cl)cc2)nnc1SCC#N`, “LYNA and DYRK2”; under `Sc1nnc(CNc2cccc(Cl)c2)n1-c1ccccc1` [5-((3-chlorophenylamino)methyl)-4-phenyl-4H-1,2,4-triazole-3-thiol], “GSK3-β; also recorded: GSK3-α”. On the same count and under the same terms, the result for `Cc1nnc(SCC(=O)c2ccc3c(c2)OCCO3)[nH]1` reads “GSK3-α; also recorded: GSK3-β; also recorded: DYRK2”; that for `CCc1ccc(OCc2nnc(SCC(=O)O)n2Cc2ccccc2)cc1` [2-(4-benzyl-5-((4-ethylphenoxy)methyl)-4H-1,2,4-triazol-3-ylthio)acetic acid], “AKT1”; that for `COC(=O)c1ccccc1NC(=O)CSc1nnc(CNc2ccc(F)cc2)n1CC1CCCO1` (stereo not drawn), “AURORA-A”.

For the compound `Cc1ccc(NCc2nnc(SCC(=O)NCc3ccco3)n2CC2CCCO2)c(C)c1` (stereo not drawn), the Kinase entry was “PDGFRR-α and FYN”. Same read-out and setting: the result for `CCOC(=O)c1ccc(NC(=O)CSc2nnc(C)n2CCOC)cc1` reads “AKT1”. On the same count and under the same terms, the result for `COc1cc(C(=O)CSc2nnc(-c3ccc(O)cc3)n2Cc2ccco2)ccc1NC(C)=O` reads “GSK3-α”; that for `Sc1nnc(CNc2ccc(Cl)cc2)n1Cc1ccccc1` [4-benzyl-5-((4-chlorophenylamino)methyl)-4H-1,2,4-triazole-3-thiol], “AURORA-A”; that for `COc1ccccc1-n1c(S)nnc1-c1cccnc1` [4-(2-methoxyphenyl)-5-(pyridin-3-yl)-4H-1,2,4-triazole-3-thiol], “AURORA-A”. Same read-out and setting: under `CCOC(=O)c1sc(NC(=O)CSc2nnc(-c3ccc(O)cc3)n2CC2CCCO2)nc1C` (stereo not drawn) stands “GSK3-β; also recorded: GSK3-α”; under `Cc1ccc(OCc2nnc(SCC#N)n2C)cc1` [2-(4-methyl-5-(p-tolyloxymethyl)-4H-1,2,4-triazol-3-ylthio)acetonitrile], “CSK”. As for `Cc1cc(OCc2nnc(SCC(=O)O)n2Cc2ccccc2)ccc1Cl`, the Kinase entry is on record as “HCK”. Same read-out and setting: under `Cc1ccc(-n2c(CNc3ccc(F)cc3)nnc2SCC(=O)Nc2ccccc2C(F)(F)F)cc1` stands “AKT1”; under `COc1ccc(OCc2nnc(SC(C)C(=O)Nc3ccccc3C)n2C)cc1` (stereo not drawn), “PDGFRR-α”; under `CCn1c(SCC(=O)c2ccc(OC)cc2)nnc1-c1ccncc1`, “PKA and MAPKAPK-2 and MSK1”.

Take `O=C(CSc1nnc(-c2cccnc2)n1Cc1ccco1)Nc1nccs1`: the Kinase result was “GSK3-α; also recorded: GSK3-β; also recorded: CDK2-cyclinE”. With `COc1ccc(-n2c(SC(C)C(=O)Nc3ccccc3)nnc2-c2ccc(O)cc2)cc1` (stereo not drawn), the Kinase result was “GSK3-α and AKT1”. In the case of `O=C(CSc1nnc(-c2cccc(C(F)(F)F)c2)[nH]1)c1ccc2c(c1)OCCO2`, the Kinase result is “AURORA-A; also recorded: GSK3-α; also recorded: FLT-3”. For the compound `Cc1ccc(NC(=O)C(C)Sc2nnc(-c3ccc(O)cc3)n2-c2ccccc2)cc1` (stereo not drawn), the Kinase entry is “HCK”. With `CCOC(=O)CSc1nnc(CNc2cc(Cl)ccc2Cl)n1CC`, the Kinase result is reported as “DYRK2”.

Staying with this assay, now noted: test compound 10 μM; active = activity greater than three-sigma from the mean of the predominately inactive population for that enzyme.
Take `CCOC(=O)CCSc1nnc(-c2cccnc2)[nH]1` [ethyl 3-(5-(pyridin-3-yl)-4H-1,2,4-triazol-3-ylthio)propanoate]: the “protein kinase against which the compound exhibits inhibitory activity (Table 3)” value is recorded as “AURORA-A; also recorded: DYRK2”. Same read-out and setting: the result for `CS(=O)(=O)c1ccc(CSc2nnc(-c3ccc(Cl)c(Cl)c3)[nH]2)cc1` [3-(3,4-dichlorophenyl)-5-(4-(methylsulfonyl)benzylthio)-4H-1,2,4-triazole] reads “AURORA-A; also recorded: FLT-3”. The same measure, in the same setting: under `O=[N+]([O-])c1ccc(-c2nnc(CSc3nncn3-c3ccccn3)o2)cc1` stands “PDGFRR-α”. The same measure, in the same setting: the result for `Cc1nnc(SCc2ccccc2)n1Cc1ccco1` [3-(benzylthio)-4-(furan-2-ylmethyl)-5-methyl-4H-1,2,4-triazole] reads “GSK3-α”. As to `Cc1cccc(NCc2nnc(SCc3ccc(Cl)cc3)n2-c2ccccc2)c1`, the “protein kinase against which the compound exhibits inhibitory activity (Table 3)” value is “PDGFRR-α and MSK2”. The same measure, in the same setting: the result for `COc1ccccc1-n1c(SCCC(=O)OCc2ccccc2)nnc1C1CCCCC1` reads “AURORA-A”; that for `COc1ccccc1-n1c(SCCCC(=O)O)nnc1-c1ccccc1` [4-(4-(2-methoxyphenyl)-5-phenyl-4H-1,2,4-triazol-3-ylthio)butanoic acid], “c-TAK1”. Turning to `COc1ccc(NCc2nnc(SCCN3CCCCC3)n2C)cc1`, the “protein kinase against which the compound exhibits inhibitory activity (Table 3)” value is “FYN and PDGFRR-α”. On the same count and under the same terms, the result for `Clc1cccc(NCc2nnc(SCc3ccc(Cl)cc3Cl)n2-c2ccccc2)c1` reads “LCK”.

As to `O=C1c2ccccc2C(=O)N1CCSc1nnc(-c2cccc(C(F)(F)F)c2)[nH]1`, the “protein kinase against which the compound exhibits inhibitory activity (Table 3)” value was “GSK3-β and PKA and GSK3-α”. The same measure, in the same setting: under `CCn1c(COc2ccc(OC)cc2)nnc1SCc1ccc(Cl)cc1` stands “CDK2-cyclinE”; under `O=C(NCCSc1nnc(-c2cccs2)[nH]1)c1ccccc1` [N-(2-(5-(thiophen-2-yl)-4H-1,2,4-triazol-3-ylthio)ethyl)benzamide], “DYRK2; also recorded: GSK3-α; also recorded: GSK3-β”; under `CCCCSc1nnc(COc2ccc(Cl)cc2)[nH]1` [3-(butylthio)-5-((4-chlorophenoxy)methyl)-4H-1,2,4-triazole], “FLT-3”. The same measure, in the same setting: under `Cn1cnnc1SCc1csc(Cc2ccc(Cl)c(Cl)c2)n1` stands “GSK3-α”; under `CSc1nnc(COc2ccccc2C)n1Cc1ccccc1` [4-benzyl-3-(methylthio)-5-(o-tolyloxymethyl)-4H-1,2,4-triazole], “MSK2”; under `COc1ccc(NCc2nnc(SCc3ccccc3)n2-c2ccc(OC)cc2)cc1`, “PDGFRR-α and FLT-3 and FYN”. The same measure, in the same setting: under `Cc1ccc(CCn2c(CCC3CCCC3)nnc2SCc2ccccc2)cc1` stands “AURORA-A; also recorded: c-TAK1”; under `FC(F)Oc1ccccc1CSc1nnc(-c2cc(-c3ccccc3)nc3ccccc23)n1Cc1ccco1`, “c-TAK1”. Take `Cc1ccc(CSc2nnc(CSc3nc(C)cc(C)n3)n2Cc2ccco2)cc1`: the “protein kinase against which the compound exhibits inhibitory activity (Table 3)” value was “CDK2-cyclinA”. Still for that read-out and setting: the result for `COc1ccc(-c2nnc(SCCN3CCOCC3)[nH]2)cc1` [4-(2-(5-(4-methoxyphenyl)-4H-1,2,4-triazol-3-ylthio)ethyl)morpholine] reads “GSK3-α; also recorded: AURORA-A; also recorded: GSK3-β”; that for `NC(=O)CSc1nnc(-c2ccc(OC(F)(F)F)cc2)[nH]1`, “AURORA-A; also recorded: GSK3-β; also recorded: DYRK2”; that for `COc1ccc(-c2nnc(SCc3cccc(I)c3)[nH]2)cc1` [3-(3-iodobenzylthio)-5-(4-methoxyphenyl)-4H-1,2,4-triazole], “AURORA-A”.

Regarding `COc1ccccc1-n1c(SCc2ccc(Cl)nc2)nnc1-c1cccc(Cl)c1`, the “protein kinase against which the compound exhibits inhibitory activity (Table 3)” value was “ROCK2”.

`Oc1ccc(-c2nnc(SCc3ccccc3)n2Cc2ccco2)cc1` [4-(5-(benzylthio)-4-(furan-2-ylmethyl)-4H-1,2,4-triazol-3-yl)phenol]: the “protein kinase against which the compound exhibits inhibitory activity (Table 3)” value was “GSK3-β and GSK3-α and MSK2”. The same measure, in the same setting: the result for `CC(C)=CCSc1nnc(CCC2CCCC2)n1CCCN1CCOCC1` reads “GSK3-α”.

These data come from patent US20050288347A1, “Certain triazole-based compounds, compositions, and uses thereof” (priority 2004, published 2005).
